Values quoted from earlier work as cited in patent US20230233498A1, “COMPOSITIONS AND METHODS FOR THE TREATMENT OF COVID-19” (PROTHIONE, LLC, priority 2020, published 2023).
Read-outs that look alike come from different tables or passages of the source.

What was measured:
[1] = system: zinc-dependent metalloproteinases; details: for GP shedding: higher concentrations (25-50 mM)
rotaviruses = details: 10 mM
[2] = system: Human Foreskin (HF) cells infected with HSV-2-strain G; details: 3 to 1.5 mM

SMILES: CNC(=O)[C@@H](NC(=O)[C@H](CC(C)C)[C@H](O)C(=O)NO)C(C)(C)C [BB2516]
- inhibition of glycoprotein shedding ([1]; concentration of 0.5 mM): inhibitory effects were observed

SMILES: COc1ccc(S(=O)(=O)N(Cc2cccnc2)[C@@H](C(=O)NO)C(C)C)cc1 [CGS-27023A]
- GP shedding [1]: reduced GP shedding

SMILES: O=C(O)CN(CCN(CC(=O)O)CC(=O)O)CC(=O)O [EDTA, ethylenediaminetetraacetic acid]
- effect on viral particles (rotaviruses): non-infectious viral particles

SMILES: CNC(=O)[C@H](Cc1c[nH]c2ccccc12)NC(=O)[C@@H](CC(=O)NO)CC(C)C [GM6001]
- inhibition of glycoprotein shedding ([1]; concentration of 5 mM): inhibitory effects were observed

SMILES: COc1ccc(S(=O)(=O)N(CC(=O)NO)CC(C)C)cc1 [MMP-3 inhibitor II]
- GP shedding [1]: reduced GP shedding

SMILES: COc1ccc(S(=O)(=O)N2Cc3ccccc3C[C@@H]2C(=O)NO)cc1 [MMP-8 inhibitor I]
- inhibition of glycoprotein shedding ([1]; concentration of 5 mM): inhibitory effects were observed

SMILES: CC(C)C[C@H](CC(=O)NO)C(=O)N[C@@H](Cc1ccc2ccccc2c1)C(=O)N[C@@H](C)C(=O)NCCN [TAPI-I]
- GP shedding [1]: reduced GP shedding

SMILES: O=C(O)c1ccccn1 [picolinic acid]
- apoptosis of infected cells [2]: cause apoptosis of HF infected cells
